Patent US11000033B2, “Ketone or oxime compound, and herbicide” (NISSAN CHEMICAL CORPORATION, priority 2014, dated 2021)

Experiments:
Format in all cases: in vivo
[1] = tested on: directly sowed rice plant; experiment: Test Example 3: effect on crop by foliage application, Wagner pot (symbol b); settings: application herbicide amount 320 g/ha
Procedure, shortened: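 Steps: fill a 1/10000-are Wagner pot with alluvial soil; add water and mix to submerge at 0.1–0.5 cm depth; sow rice plus Echinochloa crus-galli var. crus-galli, Leptochloa chinensis and Cyperus difformis; grow in a 25–30 °C greenhouse.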

Setaria viridis = experiment: Test Example 5: herbicidal effect by foliage application, plastic box (symbol G); settings: 320 g/ha, 3 weeks after application
Procedure, shortened: (§1)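 Emulsion formulation, diluted with water to the intended rate, was applied uniformly to leaves by small sprayer. Recipients were 14-day greenhouse-grown seedlings (25° C. to 30° C.). Assessment followed at 3 weeks.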

Cyperus difformis = experiment: Test Example 3: herbicidal effect by foliage application, Wagner pot (symbol E); settings: application herbicide amount 320 g/ha
Procedure, shortened: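 Alluvial soil was flooded to a depth of 0.1–0.5 cm, seeded with the weeds and rice, and kept in a greenhouse at 25–30 °C. After 14 days of growth, the foliage received a small-sprayer application of emulsion diluted to the intended rate; injury was rated at 3 weeks.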

Galium spurium = experiment: Test Example 5: herbicidal effect by foliage application, plastic box (symbol Q); settings: 320 g/ha, 3 weeks after application
Procedure, shortened: as §1

wheat = experiment: Test Example 4: effect on crop by soil treatment (symbol e); settings: for e (wheat) effect on crop grade: application herbicide amount 320 g/ha; for e: wheat, effect grade on crop: 320 g/ha
Procedure, shortened: (§2)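 Plants are raised in a greenhouse (25° C. to 30° C.) from spot-sown seed, which sits under about 1.5 cm of sterilized diluvial soil in a box shared with weed species.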

Alopecurus myosuroides = experiment: Test Example 5: herbicidal effect by foliage application, plastic box (symbol J); settings: 320 g/ha, 3 weeks after application
Procedure, shortened: as §1

Veronica persica = experiment: Test Example 5: herbicidal effect by foliage application, plastic box (symbol R); settings: 320 g/ha, 3 weeks after application
Procedure, shortened: as §1

Abutilon theophrasti = experiment: Test Example 4: herbicidal effect by soil treatment (symbol M); settings: for M (Abutilon theophrasti) herbicidal effect grade: application herbicide amount 320 g/ha; for M: Abutilon theophrasti, herbicidal effect grade: 320 g/ha
Procedure, shortened: (§3)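 Seeds were sown in sterilized diluvial soil, covered with about 1.5 cm of soil, and the soil surface was sprayed with a water-diluted emulsion of the compound at a predetermined rate. Plants grew in a greenhouse at 25° C. to 30° C.; effects were scored visually 3 weeks after application.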

corn = experiment: Test Example 4: effect on crop by soil treatment (symbol c); settings: for c (corn) effect on crop grade: application herbicide amount 320 g/ha; for c: corn, effect grade on crop: 320 g/ha
Procedure, shortened: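 Crop seed is sown in spots together with several weed species in a box of sterilized diluvial soil. It is covered by about 1.5 cm of soil and kept in a greenhouse held between 25° C. and 30° C.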

Lolium multiflorum Lam. = experiment: Test Example 4: herbicidal effect by soil treatment (symbol K); settings: for K (Lolium multiflorum Lam.) herbicidal effect grade: application herbicide amount 320 g/ha; for K: Lolium multiflorum Lam., herbicidal effect grade: 320 g/ha
Procedure, shortened: as §3

Apera spica-venti = experiment: Test Example 5: herbicidal effect by foliage application, plastic box (symbol L); settings: 320 g/ha, 3 weeks after application
Procedure, shortened: as §1

[2] = tested on: Echinochloa crus-galli var. crus-galli; experiment: Test Example 4: herbicidal effect by soil treatment (symbol H); settings: for H (Echinochloa crus-galli var. crus-galli) herbicidal effect grade: application herbicide amount 320 g/ha; for H: Echinochloa crus-galli var. crus-galli, herbicidal effect grade: 320 g/ha
Procedure, shortened: as §3

Digitaria ciliaris [3] = experiment: Test Example 4: herbicidal effect by soil treatment (symbol F); settings: for F (Digitaria ciliaris) herbicidal effect grade: application herbicide amount 320 g/ha; for F: Digitaria ciliaris, herbicidal effect grade: 320 g/ha
Procedure, shortened: as §3

[4] = tested on: Echinochloa oryzacola Vasing.; experiment: Test Example 2: herbicidal activity, application during weed generation in submerged conditions (symbol A); settings: Table 23; application herbicide amount 320 g/ha; grade 0-5 by criteria of Test Example 1
Procedure, shortened: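 Weeds emerging under flooded conditions were treated with compound formulated as an emulsion and diluted with water to the intended herbicide amount, poured onto the surface of 4 cm standing water. Seeds had been co-sown in alluvial soil; plants grew at 25° C. to 30° C. and were assessed after 3 weeks.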

beet [5] = experiment: Test Example 5: effect on crop by foliage application, plastic box (symbol f); settings: 320 g/ha, 3 weeks after application
Procedure, shortened: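 Crop seed is sown alongside grass and broadleaf weed species in spots in sterilized diluvial soil, then covered to a depth of about 1.5 cm. Plants grow in a greenhouse kept at 25° C. to 30° C.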

Digitaria ciliaris [6] = experiment: Test Example 5: herbicidal effect by foliage application, plastic box (symbol F); settings: 320 g/ha, 3 weeks after application
Procedure, shortened: as §1

rice = experiment: Test Example 4: effect on crop by soil treatment (symbol b); settings: for b (directly sowed rice plant) effect on crop grade: application herbicide amount 320 g/ha; for b: directly sowed rice plant, effect grade on crop: 320 g/ha
Procedure, shortened: as §2

beet [7] = experiment: Test Example 4: effect on crop by soil treatment (symbol f); settings: for f (beet) effect on crop grade: application herbicide amount 320 g/ha; for f: beet, effect grade on crop: 320 g/ha
Procedure, shortened: as §2

| Structure (SMILES) | effect on crop b (directly sowed rice plant), grade 0-5 [1] | G: Setaria viridis, herbicidal effect grade (Setaria viridis) | herbicidal effect on E, grade 0-5 (Cyperus difformis) | Q: Galium spurium, herbicidal effect grade (Galium spurium) | e (wheat) effect on crop grade (wheat) | J: Alopecurus myosuroides, herbicidal effect grade (Alopecurus myosuroides) | R: Veronica persica, herbicidal effect grade (Veronica persica) | M (Abutilon theophrasti) herbicidal effect grade (Abutilon theophrasti) | c (corn) effect on crop grade (corn) | K (Lolium multiflorum Lam.) herbicidal effect grade (Lolium multiflorum Lam.) | L: Apera spica-venti, herbicidal effect grade (Apera spica-venti) | H (Echinochloa crus-galli var. crus-galli) herbicidal effect grade [2] | F (Digitaria ciliaris) herbicidal effect grade (Digitaria ciliaris [3]) | Herbicidal effect grade, A: Echinochloa oryzacola Vasing. [4] | f: beet, effect on crop grade (beet [5]) | F: Digitaria ciliaris, herbicidal effect grade (Digitaria ciliaris [6]) | b (directly sowed rice plant) effect on crop grade (rice) | f (beet) effect on crop grade (beet [7]) | G: Setaria viridis, herbicidal effect (criteria 0-5) (Setaria viridis) | Q: Galium spurium, herbicidal effect (criteria 0-5) (Galium spurium) | also measured |
| --- | --- | --- | --- | --- | --- | --- | --- | --- | --- | --- | --- | --- | --- | --- | --- | --- | --- | --- | --- | --- | --- |
| CCON=C(C)CC1CC(O)=C(c2c(C)cc(C)cc2C)C1=O (stereo not drawn) [1-003] | 5 (Herbicidal ratio of 90% or more (almost completely withered)) | 5 (Herbicidal ratio of 90% or more (almost completely withered)) | 5 (Herbicidal ratio of 90% or more (almost completely withered)) | 3 (Herbicidal ratio of 40% or higher and lower than 70%) | 5 (Herbicidal ratio of 90% or more (almost completely withered)) | 5 (Herbicidal ratio of 90% or more (almost completely withered)) | 3 (Herbicidal ratio of 40% or higher and lower than 70%) | 4 (Herbicidal ratio of 70% or higher and lower than 90%) | 5 (Herbicidal ratio of 90% or more (almost completely withered)) | 5 (Herbicidal ratio of 90% or more (almost completely withered)) | 5 (Herbicidal ratio of 90% or more (almost completely withered)) | 5 (Herbicidal ratio of 90% or more (almost completely withered)) | 5 (Herbicidal ratio of 90% or more (almost completely withered)) | 5 (Herbicidal ratio of 90% or more (almost completely withered)) | 3 (Herbicidal ratio of 40% or higher and lower than 70%) | 5 (Herbicidal ratio of 90% or more (almost completely withered)) | 5 (Herbicidal ratio of 90% or more (almost completely withered)) | 2 (Herbicidal ratio of 20% or higher and lower than 40%) |  |  |  |
| CON=C(C)CC1CC(OC(=O)C(C)Oc2ccc(Oc3cnc4cc(Cl)ccc4n3)cc2)=C(c2c(C)cc(C)cc2C)C1=O (stereo not drawn) [1-087] | 5 (Herbicidal ratio of 90% or more (almost completely withered)) |  | 5 (Herbicidal ratio of 90% or more (almost completely withered)) |  |  |  |  |  |  |  |  |  |  | 5 (Herbicidal ratio of 90% or more (almost completely withered)) |  |  |  |  | 5 (Herbicidal ratio of 90% or more (almost completely withered)) | 4 (Herbicidal ratio of 70% or higher and lower than 90%) | e: wheat, effect grade on crop (wheat): 5 (Herbicidal ratio of 90% or more (almost completely withered)); J: Alopecurus myosuroides, herbicidal effect (criteria 0-5) (Alopecurus myosuroides): 5 (Herbicidal ratio of 90% or more (almost completely withered)); R: Veronica persica, herbicidal effect (criteria 0-5) (Veronica persica): 3 (Herbicidal ratio of 40% or higher and lower than 70%); M: Abutilon theophrasti, herbicidal effect grade (Abutilon theophrasti): 5 (Herbicidal ratio of 90% or more (almost completely withered)); c: corn, effect grade on crop (corn): 3 (Herbicidal ratio of 40% or higher and lower than 70%); K: Lolium multiflorum Lam., herbicidal effect grade (Lolium multiflorum Lam.): 5 (Herbicidal ratio of 90% or more (almost completely withered)); L: Apera spica-venti, herbicidal effect (criteria 0-5) (Apera spica-venti): 5 (Herbicidal ratio of 90% or more (almost completely withered)); H: Echinochloa crus-galli var. crus-galli, herbicidal effect grade [2]: 5 (Herbicidal ratio of 90% or more (almost completely withered)); F: Digitaria ciliaris, herbicidal effect grade (Digitaria ciliaris [3]): 5 (Herbicidal ratio of 90% or more (almost completely withered)); f: beet, effect on crop (criteria 0-5) (beet [5]): 4 (Herbicidal ratio of 70% or higher and lower than 90%); F: Digitaria ciliaris, herbicidal effect (criteria 0-5) (Digitaria ciliaris [6]): 5 (Herbicidal ratio of 90% or more (almost completely withered)); b: directly sowed rice plant, effect grade on crop (rice): 5 (Herbicidal ratio of 90% or more (almost completely withered)); f: beet, effect grade on crop (beet [7]): 4 (Herbicidal ratio of 70% or higher and lower than 90%) |
| CON=C(C)CC1CC(OC(=O)COc2ccc(Br)cc2)=C(c2c(C)cc(C)cc2C)C1=O (stereo not drawn) [1-081] | 5 (Herbicidal ratio of 90% or more (almost completely withered)) |  | 5 (Herbicidal ratio of 90% or more (almost completely withered)) |  |  |  |  |  |  |  |  |  |  | 5 (Herbicidal ratio of 90% or more (almost completely withered)) |  |  |  |  | 5 (Herbicidal ratio of 90% or more (almost completely withered)) | 0 (Herbicidal ratio of 5% or lower (almost no effect)) | e: wheat, effect grade on crop (wheat): 4 (Herbicidal ratio of 70% or higher and lower than 90%); J: Alopecurus myosuroides, herbicidal effect (criteria 0-5) (Alopecurus myosuroides): 5 (Herbicidal ratio of 90% or more (almost completely withered)); R: Veronica persica, herbicidal effect (criteria 0-5) (Veronica persica): 0 (Herbicidal ratio of 5% or lower (almost no effect)); M: Abutilon theophrasti, herbicidal effect grade (Abutilon theophrasti): 4 (Herbicidal ratio of 70% or higher and lower than 90%); c: corn, effect grade on crop (corn): 4 (Herbicidal ratio of 70% or higher and lower than 90%); K: Lolium multiflorum Lam., herbicidal effect grade (Lolium multiflorum Lam.): 5 (Herbicidal ratio of 90% or more (almost completely withered)); L: Apera spica-venti, herbicidal effect (criteria 0-5) (Apera spica-venti): 5 (Herbicidal ratio of 90% or more (almost completely withered)); H: Echinochloa crus-galli var. crus-galli, herbicidal effect grade [2]: 5 (Herbicidal ratio of 90% or more (almost completely withered)); F: Digitaria ciliaris, herbicidal effect grade (Digitaria ciliaris [3]): 5 (Herbicidal ratio of 90% or more (almost completely withered)); f: beet, effect on crop (criteria 0-5) (beet [5]): 0 (Herbicidal ratio of 5% or lower (almost no effect)); F: Digitaria ciliaris, herbicidal effect (criteria 0-5) (Digitaria ciliaris [6]): 5 (Herbicidal ratio of 90% or more (almost completely withered)); b: directly sowed rice plant, effect grade on crop (rice): 5 (Herbicidal ratio of 90% or more (almost completely withered)); f: beet, effect grade on crop (beet [7]): 0 (Herbicidal ratio of 5% or lower (almost no effect)) |
| CCCCCCCON=C(C)CC1CC(O)=C(c2c(C)cc(C)cc2C)C1=O (stereo not drawn) [1-054] | 5 (Herbicidal ratio of 90% or more (almost completely withered)) | 3 (Herbicidal ratio of 40% or higher and lower than 70%) | 0 (Herbicidal ratio of 5% or lower (almost no effect)) | 0 (Herbicidal ratio of 5% or lower (almost no effect)) | 0 (Herbicidal ratio of 5% or lower (almost no effect)) | 4 (Herbicidal ratio of 70% or higher and lower than 90%) | 0 (Herbicidal ratio of 5% or lower (almost no effect)) | 0 (Herbicidal ratio of 5% or lower (almost no effect)) | 0 (Herbicidal ratio of 5% or lower (almost no effect)) | 5 (Herbicidal ratio of 90% or more (almost completely withered)) | 3 (Herbicidal ratio of 40% or higher and lower than 70%) | 4 (Herbicidal ratio of 70% or higher and lower than 90%) | 5 (Herbicidal ratio of 90% or more (almost completely withered)) | 3 (Herbicidal ratio of 40% or higher and lower than 70%) | 0 (Herbicidal ratio of 5% or lower (almost no effect)) | 2 (Herbicidal ratio of 20% or higher and lower than 40%) | 5 (Herbicidal ratio of 90% or more (almost completely withered)) | 0 (Herbicidal ratio of 5% or lower (almost no effect)) |  |  |  |
